Results from US10167279B2 (NOVARTIS AG, priority 2014, dated 2019).

Target: C-Raf FL (Homo sapiens (Human), UniProt P04049, Y340E/Y341E)
Experiment: In vitro Raf activity determination (Alpha Screen, phospho-MEK), C-Raf FL (full length, Y340E/Y341E)
Format: biochemical
Details: ATP 1 μM; 60 min pre-incubation; 1 hour reaction; column head does not say FL or TR
Source text: The activity of a compound according to the present invention can be assessed by well-known in vitro & in vivo methods. Raf inhibition data provided herein was obtained using the following procedures.
Sf9 cells co-expressing both proteins were lysed and subjected to immobilized nickel chromatography and eluted with Imidazole. A second column (StrepII binding column) was used and eluted with desthiobiotin. Protein Tags were removed using Prescission enzyme and the protein was further purified using a flowthrough step to remove tags.
C-Raf TR refers to a truncated C-Raf protein, a Δ1-324 deletion mutant. C-Raf FL refers to the full-length C-Raf protein.
Full length MEK1 with an inactivating K97R ATP binding site mutation is utilized as a RAF substrate. The MEK1 cDNA was subcloned with an N-terminal (his)6 tag into a vector for E. Coli expression. The MEK1 substrate was purified from E. Coli lysate by nickel affinity chromatography followed by anion exchange. The final MEK1 preparation was biotinylated (Pierce EZ-Link Sulfo-NHS-LC-Biotin) and concentrated.
Assay protocol: Raf and biotinylated Mek (kinase dead) were combined at 2× final concentrations in assay buffer (50 mM Tris, pH 7.5, 15 mM MgCl2, 0.01% BSA and 1 mM DTT) and dispensed […] per well in assay plates (Greiner white 384 well assay plates #781207) containing […] of 40× of a Raf kinase inhibitor test compound diluted in 100% DMSO. The plate was incubated for 60 minutes at room temperature. […] The reactions were stopped and the phosphorylated product was measured using a rabbit anti-p-MEK (Cell Signaling, #9121) antibody and the Alpha Screen IgG (ProteinA) detection Kit (PerkinElmer #6760617R), by the addition of […] to the well of a mixture of the antibody (1:2000 dilution) and detection beads (1:2000 dilution of both beads) in Stop/bead buffer (25 mM EDTA, 50 mM Tris, pH 7.5, 0.01% Tween20). The additions were carried out under dark conditions to protect the detection beads from light. A lid was placed on top of the plate and incubated for 1 hour at room temperature, after which the luminescence was read on a PerkinElmer Envision instrument. The concentration of each compound for 50% inhibition (IC50) was calculated by non-linear regression using XL Fit data analysis software.

Row | Compound | IC50 [nM]
1 | CCOc1nnc(-c2cc(NC(=O)c3ccnc(C#N)c3)ccc2C)cc1C1CCOCC1 [Example 229, 2-cyano-N-(3-(6-ethoxy-5-(tetrahydro-2H-pyran-4-yl)pyridazin-3-yl)-4-methylphenyl)] | 0.7
2 | Cc1ccc(NC(=O)c2ccnc(C(F)(F)F)c2)cc1-c1cc(OCCO)nc(C2CCOCC2O)c1 (single isomer, unassigned) [Example 250] | 1
3 | Cc1ncc(NC(=O)c2cccc(C(F)(F)F)c2)cc1-c1cc(N2CCOC2=O)nc(C2(O)CCOCC2)c1 [Example 301, N-(2′-(4-hydroxytetrahydro-2H-pyran-4-yl)-2-methyl-6′-(2-oxooxazolidin-3-yl)-[3,4′-bipyridin]-5-yl)-3-(trifluoromethyl) benzamide] | 0.951
4 | Cc1ccc(NC(=O)c2cc(C(F)(F)F)ccn2)cc1-c1cc(NCCO)nc(C2(O)CCOCC2)c1 [Example 303, N-(3-(2-((2-hydroxyethyl)amino)-6-(4-hydroxytetrahydro-2H-pyran-4-yl)pyridin-4-yl)-4-methylphenyl)-4-(trifluoromethyl) picolinamide] | 1.99
5 | Cc1ncc(NC(=O)c2ccnc(C(C)(C)F)c2)cc1-c1cc(OCCO)nc(C2(F)COC2)c1 [Example 50, N-(2′-(3-fluorooxetan-3-yl)-6′-(2-hydroxyethoxy)-2-methyl-[3,4′-bipyridin]-5-yl)-2-(2-fluoropropan-2-yl)isonicotinamide] | 3.29
6 | Cc1ccc(NC(=O)c2ccnc(C(F)(F)F)c2)cc1-c1cc(C2CCOCC2)c(N(C)CCO)nn1 [Example 308] | 0.5
7 | Cc1ccc(NC(=O)c2ccnc(C(C)(F)F)c2)cc1-c1cc(OCCO)nc(C2CCOCC2O)c1 (stereo not shown) [Example 243, 2-(1,1-difluoroethyl)-N-(3-(2-(2-hydroxyethoxy)-6-(3-hydroxytetrahydro-2H-pyran-4-yl)pyridin-4-yl)-4-methylphenyl) isonicotinamide] | 1
8 | CCOc1ncc(-c2cc(NC(=O)c3ccnc(C(C)(C)C#N)c3)ccc2C)cc1C1(CF)CCOC1 (stereo not shown) [Example 288, 2-(2-cyanopropan-2-yl)-N-(3-(6-ethoxy-5-(3-(fluoromethyl)tetrahydrofuran-3-yl)pyridin-3-yl)-4-methylphenyl)isonicotinamide] | 0.6
9 | Cc1ncc(NC(=O)c2ccnc(C(C)(C)F)c2)cc1-c1cc(C2(O)COC2)cc(C2(F)COC2)c1 [Example 142, N-(5-(3-(3-fluorooxetan-3-yl)-5-(3-hydroxyoxetan-3-yl)phenyl)-6-methylpyridin-3-yl)-2-(2-fluoropropan-2-yl)isonicotinamide] | 11.2
10 | Cc1ccc(NC(=O)c2cc(C(F)(F)F)ccn2)cc1-c1cc(OCCO)nc(C2(CO)CCOCC2)c1 [Example 219] | 0.5
11 | CCOc1nnc(-c2cc(NC(=O)c3ccc4c(c3)CNC4)ccc2C)cc1C1CCOCC1 [Example 285, N-(3-(6-ethoxy-5-(tetrahydro-2H-pyran-4-yl)pyridazin-3-yl)-4-methylphenyl) isoindoline-5-carboxamid] | 0.9
12 | CCOc1ncc(-c2cc(NC(=O)c3ccnc(C(C)(C)F)c3)cnc2C)cc1C1(F)CCOC1 (stereo not shown) [Example 298, N-(6′-ethoxy-5′-(3-fluorotetrahydro-furan-3-yl)-2-methyl-[3,3′-bipyridin]-5-yl)-2-(2-fluoropropan-2-yl)isonicotinamide] | 2
13 | COc1ncc(-c2cc(C(=O)Nc3cccc(C(F)F)c3)ccc2C)cc1C1(O)COC1 [Example 18, N-(3-(difluoromethyl)phenyl)-3-(5-(3-hydroxyoxetan-3-yl)-6-methoxypyridin-3-yl)-4-methylbenzamide] | 0.6
14 | Cc1ccc(NC(=O)c2ccnc(C(C)(F)F)c2)cc1-c1cc(C2CCOCC2)nc(N(CCO)CCO)c1 [Example 177, N-(3-(2-(bis(2-hydroxyethyl)amino)-6-(tetrahydro-2H-pyran-4-yl)pyridin-4-yl)-4-methylphenyl)-2-(1,1-difluoroethyl) isonicotinamide] | 0.621
15 | Cc1ncc(NC(=O)c2cccc(C(F)(F)F)c2)cc1-c1cc(C2(C)COC2)c(OC2CCOCC2)nn1 [Example 11] | 0.6

Now those with a lower IC50, led by results:

Row | IC50 [nM] | Compound
16 | 0.3 | Cc1ncc(NC(=O)c2cccc(C(F)(F)F)c2)cc1-c1cc(C2COC2)c2nccn2n1 [Example 9, N-(6-methyl-5-(8-(oxetan-3-yl)imidazo[1,2-b]pyridazin-6-yl)pyridin-3-yl)-3-(trifluoromethyl)benzamide]
17 | 0.3 | Cc1ccc(NC(=O)c2cnnc(C(F)(F)F)c2)cc1-c1cc(OCCO)nc(C2(CO)CCOCC2)c1 [Example 217]
18 | 0.297 | Cc1ncc(NC(=O)c2cccc(C(F)(F)F)c2)cc1-c1cc(NCCO)nc(C2CCOCC2)c1 [Example 180, N-(2′-((2-hydroxyethyl)amino)-2-methyl-6′-(tetrahydro-2H-pyran-4-yl)-[3,4′-bipyridin]-5-yl)-3-(trifluoromethyl) benzamide]
19 | 0.297 | Cc1ccc(NC(=O)c2ccnc(C(F)(F)F)c2)cc1-c1cc(N2CCOC2=O)nc(C2(O)CCOCC2)c1 [Example 286, N-(3-(2-(4-hydroxytetrahydro-2H-pyran-4-yl)-6-(2-oxooxazolidin-3-yl)pyridin-4-yl)-4-methylphenyl)-2-(trifluoromethyl)isonicotinamide]
20 | 0.2 | CCOc1nnc(-c2cc(NC(=O)c3ccnc(C4(C(F)(F)F)CC4)c3)ccc2C)cc1C1CCOCC1 [Example 227, N-(3-(6-ethoxy-5-(tetrahydro-2H-pyran-4-yl)pyridazin-3-yl)-4-methylphenyl)-2-(1-(trifluoromethyl)cyclopropyl) isonicotinamide]
21 | 0.2 | Cc1ccc(NC(=O)c2ccnc(C#N)c2)cc1-c1cc(OCCO)nc(C2CCOCC2)c1 [Example 263, 2-cyano-N-(3-(2-(2-hydroxyethoxy)-6-(tetrahydro-2H-pyran-4-yl)pyridin-4-yl)-4-methylphenyl) isonicotinamide]
22 | 0.136 | Cc1ccc(NC(=O)c2cccc(C(F)(F)F)c2)cc1-c1cc(C2CCOCC2)nc(N(CCO)CCO)c1 [Example 178]
23 | 0.1 | Cc1ccc(NC(=O)c2cnnc(C(F)(F)F)c2)cc1-c1cc(OCCO)nc(C2(C)CCOCC2)c1 [Example 207, N-(3-(2-(2-hydroxyethoxy)-6-(4-methyltetrahydro-2H-pyran-4-yl)pyridin-4-yl)-4-methylphenyl)-6-(trifluoromethyl) pyridazine-4-carboxamide]
24 | 0.1 | Cc1ccc(NC(=O)c2ccnc(C(F)(F)F)c2)cc1-c1cc(OCCO)nc(C2(CO)CCOCC2)c1 [Example 215]
25 | 0.1 | Cc1ccc(NC(=O)c2cnnc(C(F)(F)F)c2)cc1-c1cc2c(c(C3CCOCC3)c1)OC(C)(CO)C(=O)N2 (stereo not shown) [Example 201, N-(3-(2-(hydroxymethyl)-2-methyl-3-oxo-8-(tetrahydro-2H-pyran-4-yl)-3,4-dihydro-2H-benzo[b][1,4]oxazin-6-yl)-4-methylphenyl)-6-(trifluoromethyl) pyridazine-4-carboxamide]
26 | 0.08 | CCOc1nnc(-c2cc(NC(=O)c3cccc(C(F)(F)F)c3)cnc2C)cc1C1CCOCC1 [Example 234, N-(5-(6-ethoxy-5-(tetrahydro-2H-pyran-4-yl)pyridazin-3-yl)-6-methylpyridin-3-yl)-3-(trifluoromethyl) benzamide]
27 | 0.08 | Cc1ccc(NC(=O)c2cc(C(F)(F)F)ncn2)cc1-c1cc(OCCO)nc(C2CCOCC2)c1 [Example 260, N-(3-(2-(2-hydroxyethoxy)-6-(tetrahydro-2H-pyran-4-yl)pyridin-4-yl)-4-methylphenyl)-6-(trifluoromethyl) pyrimidine-4-carboxamide]
28 | 0.07 | Cc1ccc(NC(=O)c2cc(C(F)(F)F)ccn2)cc1-c1cc2c(c(C3CCOCC3)c1)NC(=O)C(C)(CO)O2 (single isomer, unassigned) [Example 194, N-(3-(2-(hydroxymethyl)-2-methyl-3-oxo-5-(tetrahydro-2H-pyran-4-yl)-3,4-dihydro-2H-benzo [b][1,4]oxazin-7-yl)-4-methylphenyl)-4-(trifluoromethyl) picolinamide carboxamide]
29 | 0.05 | Cc1ccc(NC(=O)c2cc(Cl)ccn2)cc1-c1cc(OC[C@H](O)CO)nc(C2CCOCC2)c1 [Example 278, (R)-4-chloro-N-(3-(2-(2,3-dihydroxypropoxy)-6-(tetrahydro-2H-pyran-4-yl)pyridin-4-yl)-4-methylphenyl) picolinamide]
30 | 0.03 | CCOc1nnc(-c2cc(NC(=O)c3cc(C(F)(F)F)ncn3)ccc2C)cc1C1CCOCC1 [Example 232]
31 | 0.02 | N-(3-(2- (hydroxymethyl)-2- methyl-3-oxo-8- (tetrahydro-2H- pyran-4-yl)-3,4-dihydro- 2H- benzo[b][1,4]oxazin-6- yl)-4-methylphenyl)-5- (trifluoromethyl) pyridazine-3-carboxamide [Example 204]
